Consider 82 compounds from PubChem BioAssay AID700 (NMMLSC, 2007).

The structures appear in SMILES notation. Active and inactive are the calls of the source. The rule behind the calls is not given here.

The experiment deals with bacterial quorum sensing reporter inhibition. Kind of experiment: blockers of quorum-sensing reporter signal in bacteria – dose response (AID 700).

Turning to `O=C(NC(=O)c1cccc(F)c1)OC[C@@H]1CCCN2CCCC[C@H]12`, the IC50 was > 20 µM (inactive).

Regarding `COc1cccc(-c2cc(C(F)(F)F)nc(NCc3ccco3)n2)c1`, the IC50 is > 20 µM (inactive).

For the compound `CCOC(=O)C(C)(C)Sc1nc2c(cnn2-c2ccc(C)cc2)c(=O)[nH]1`, the IC50 was > 20 µM (inactive).

For the compound `c1csc(CCNc2ncnc3sc4c(c23)CCC4)c1`, the IC50 was > 20 µM (inactive).

For `CC[C@H]1OC(=O)C[C@@H](O)[C@H](C)[C@@H](O[C@@H]2O[C@H](C)C[C@H](N(C)C)[C@H]2O)[C@@H](CC=O)C[C@@H](C)C(=O)C=C[C@]2(C)O[C@H]2[C@@H]1C`, the IC50 is 1.14 µM.

With `CCc1ccc2[nH]c(=O)c(CN(CCCN3CCOCC3)C(=O)Nc3ccc(F)cc3)cc2c1`, the IC50 is > 20 µM (inactive).

With `CCc1ccc(N/C(SCc2cccc(F)c2)=C(/C#N)C(=O)NCc2ccco2)cc1`, the IC50 is > 20 µM (inactive).

Consider `Cn1cccc1Cc1nnc(SCC(=O)Nc2ccccc2)n1-c1ccc(F)cc1`, for which the IC50 was > 20 µM (inactive).

Regarding `CCc1c(C)nc(SCC(=O)Nc2ccc(Br)cc2)[nH]c1=O`, the IC50 is > 20 µM (inactive).

In the case of `CCCn1c(=S)[nH]c2cc(C(=O)N3CCN(c4ccccc4OC)CC3)ccc2c1=O`, the IC50 was > 20 µM (inactive).

As for `COc1cc2[nH]c(=O)n(CCC(=O)N3CCN(c4cc(Cl)ccc4C)CC3)c(=O)c2cc1OC`, the IC50 is > 20 µM (inactive).

As for `Cc1ccc2[nH]c(=O)c(CN(CCCN(C)C)C(=O)Nc3ccc(Cl)cc3)cc2c1`, the IC50 was 9.03 µM.

On to `CC1(C)S[C@@H]2[C@H](NC(=O)[C@H](N)c3ccccc3)C(=O)N2[C@H]1C(=O)O`, for which the IC50 was > 20 µM (inactive).

Turning to `Cc1cccc2sc(NC(=O)CN(C)S(=O)(=O)c3ccc(Br)s3)nc12`, the IC50 is > 20 µM (inactive).

`COC(=O)C1C(=O)C2=C(CC1C)NC(C)=C(C(=O)OC1CCCCC1)C2c1ccc(N(C)C)cc1` (configuration not stated): the IC50 was 9.7 µM.

Take `Cc1cc(NC(=O)C2CCCC2)nc2c1c(=O)oc1ccccc12`: the IC50 was 18.4 µM (inactive).

With `Cc1c(Cl)cccc1Nc1ccccc1C(=O)O`, the IC50 is 1.89 µM.

In the case of `Cc1nc2ccccn2c1/C(O)=C1\C(=O)C(=O)N(CCCN(C)C)C1c1ccc(F)cc1` (configuration not stated), the IC50 is > 20 µM (inactive).

Consider `Cn1c(=O)n(CCc2ccccc2)c(=O)c2c1nc1n2CCN1Cc1ccco1`, for which the IC50 is > 20 µM (inactive).

`O=C(NCC(c1cccnc1)N1CCN(c2ccccc2F)CC1)c1cccc(Cl)c1` (configuration not stated): the 50% inhibitory concentration (IC50) is 1.97 µM.

Consider `Oc1ccc(-c2nc3ncccn3c2Nc2ccc3c(c2)OCCO3)cc1`, for which the IC50 was > 20 µM (inactive).

With `Cn1cc(/C=N/n2cnc3sc4c(c3c2=O)CCCC4)c2ccccc21`, the IC50 is > 20 µM (inactive).

Turning to `O=C(NCCN1CCN(c2ccccc2)CC1)c1cccn2c(=O)c3ccccc3nc12`, the IC50 was > 20 µM (inactive).

With `Cc1ccc(C)c2[nH]c(=O)c(CN(CCN3CCCC3)C(=O)Nc3ccc(F)cc3)cc12`, the IC50 is > 20 µM (inactive).

Consider `O=C(OCC(O)CO)c1ccccc1Nc1ccnc2cc(Cl)ccc12` (configuration not stated), for which the IC50 is > 20 µM (inactive).

With `COC(=O)c1[nH]nc2c1C(=O)N(C1CCCCC1)C2=O`, the IC50 was 12.7 µM (inactive).

Take `O=C(CN1C(=O)CC(c2ccco2)Sc2ccccc21)NCc1ccc2c(c1)OCO2` (configuration not stated): the IC50 was 16.5 µM (inactive).

In the case of `Fc1ccc(-c2nnc3ccc(N4CCc5ccccc5C4)nn23)cc1`, the IC50 is > 20 µM (inactive).

As for `N#Cc1c(NC(=O)COC(=O)C2CC3C=CC2C3)oc(-c2ccccc2)c1-c1ccccc1` (configuration not stated), the IC50 was 0.68 µM.

In the case of `CC(C)Cc1cc(C(=O)Nc2sc3c(c2C#N)CCCC3)no1`, the IC50 was > 20 µM (inactive).

Regarding `CCOC(=O)N1CCC(NC(=O)Cn2nc(Cc3ccncc3)c3ccccc3c2=O)CC1`, the IC50 is 5.8 µM.

As for `COc1ccc(Nc2nc(-c3sc(N)nc3C)cs2)cc1`, the IC50 was > 20 µM (inactive).

Consider `COC(=O)c1ccc(CSc2nc3c(cnn3-c3ccc(Cl)cc3)c(=O)[nH]2)o1`, for which the IC50 is > 20 µM (inactive).

Take `CCCCC(=O)Nc1cc(C)c2c(=O)oc3ccccc3c2n1`: the IC50 is > 20 µM (inactive).

Turning to `CC(C)CCOP(=O)(c1ccc(N(C)C)cc1)C(O)c1ccccc1F` (configuration not stated), the IC50 is > 20 µM (inactive).

For the compound `O=C(O)c1ccccc1Nc1cccc(C(F)(F)F)c1`, the IC50 was > 20 µM (inactive).

On to `O=C(NCCCc1ccccc1)c1cnc2n(c1=O)CCS2`, for which the IC50 was > 20 µM (inactive).

As to `COc1ccc(NC(=O)c2c(SC)nsc2SC)cc1`, the IC50 is > 20 µM (inactive).

As to `O=C(CCCCn1c(=O)[nH]c2ccccc2c1=O)N1CCN(c2cccc(C(F)(F)F)c2)CC1`, the IC50 was > 20 µM (inactive).

Turning to `Cc1ccc(C)c(N2CCN(C(=O)CCCCn3c(=O)[nH]c4ccccc4c3=O)CC2)c1`, the IC50 is > 20 µM (inactive).

As to `COc1ccc(-c2oc3ncn(CCN4CCOCC4)c(=N)c3c2-c2ccc(OC)cc2)cc1`, the IC50 is > 20 µM (inactive).

With `Cc1nn(C(C)(C)C)c(OC(=O)C2CCCC2)c1S(=O)(=O)c1ccccc1`, the IC50 is > 20 µM (inactive).

Regarding `CC1CCCN(C(C(=O)Nc2ccc3c(c2)OCO3)c2ccccc2)C1` (configuration not stated), the IC50 is 1.25 µM.

Consider `Cc1cc(NC(=O)CC(C)(C)C)nc2c1c(=O)oc1ccccc12`, for which the IC50 was > 20 µM (inactive).

As to `O=C(CSc1n[nH]c(-c2ccco2)n1)Nc1sc2c(c1C(=O)Nc1ccccc1)CCCC2`, the IC50 is 3.32 µM.

Regarding `Nc1c(C(O)(C(F)(F)F)C(F)(F)F)ccc2ccccc12`, the IC50 was > 20 µM (inactive).

On to `CCc1ccc2[nH]c(=O)c(CN(CCCN3CCOCC3)C(=O)Nc3cccc(Cl)c3)cc2c1`, for which the IC50 was > 20 µM (inactive).

With `Cc1ccc(NC(=O)c2cc(C)on2)cc1`, the IC50 is > 20 µM (inactive).

For the compound `N#Cc1c(NC(NC(=O)c2ccco2)C(=O)c2ccccc2)sc2c1CCCC2` (configuration not stated), the IC50 is > 20 µM (inactive).

For the compound `CCn1c2ccccc2c2cc(NC(=O)CSc3nnc(C4CC4)n3Cc3ccco3)ccc21`, the IC50 was > 20 µM (inactive).

With `Cc1ccc(N2CC(C(=O)NC3=NCCS3)CC2=O)cc1` (configuration not stated), the IC50 was > 20 µM (inactive).

Take `CC1CCN(S(=O)(=O)c2ccc3c(c2)oc(=O)n3CC(=O)NCc2ccc3c(c2)OCO3)CC1`: the IC50 is > 20 µM (inactive).

Regarding `CC(C)[C@@]1(NC(=O)[C@@H]2C[C@@H]3c4cccc5[nH]cc(c45)C[C@H]3N(C)C2)O[C@@]2(O)[C@@H]3CCCN3C(=O)[C@H](Cc3ccccc3)N2C1=O`, the IC50 was > 20 µM (inactive).

In the case of `CCOC(=O)Cn1c(=O)oc2cc(S(=O)(=O)Nc3ccc(N(CC)CC)cc3C)ccc21`, the IC50 is > 20 µM (inactive).

In the case of `O=C(c1ccc(Br)o1)N1CCN(c2ccc3nnc(-c4ccccc4)n3n2)CC1`, the IC50 is > 20 µM (inactive).

Turning to `COc1ccc(-c2nc(C(N)=O)c3[nH]c(=O)n(-c4cccc(Cl)c4)c3n2)cc1OC`, the IC50 is > 20 µM (inactive).

Turning to `Cc1ccc(C)c2[nH]c(=O)c(CN(CCN3CCCC3)C(=O)Nc3cccc(Cl)c3)cc12`, the IC50 was 8.19 µM.

Consider `O=C(CN1C(=O)CC(c2ccco2)Sc2ccccc21)Nc1ccc2c(c1)OCCO2` (configuration not stated), for which the IC50 was > 20 µM (inactive).

For the compound `CC1CCCCN1S(=O)(=O)c1ccc(C(=O)Nc2nnc(-c3cccs3)o2)cc1` (configuration not stated), the IC50 is > 20 µM (inactive).

Take `COc1ccc(O)c(C(=O)CC(=O)c2ccc(F)cc2)c1`: the IC50 is > 20 µM (inactive).

`Cc1cc(C)c2cc(CN(CCN3CCCC3)C(=O)Nc3ccc(F)cc3)c(=O)[nH]c2c1`: the IC50 is > 20 µM (inactive).

For `CCOC(=O)C1=C(C)NC(C)=C(C(=O)OC)C1c1cccc(Cl)c1Cl` (configuration not stated), the IC50 was > 20 µM (inactive).

As to `O=C(Nc1nc2c(s1)CCc1ccccc1-2)c1cccs1`, the IC50 is > 20 µM (inactive).

Regarding `Cc1ccc2[nH]c(=O)c(CN(CCCN(C)C)C(=O)Nc3cccc(Cl)c3)cc2c1`, the IC50 is > 20 µM (inactive).

On to `CC(C)N=c1cc2n(-c3ccc(Cl)cc3)c3ccccc3nc-2cc1Nc1ccc(Cl)cc1`, for which the IC50 was > 20 µM (inactive).

In the case of `CCCCOC(=O)Cn1c(=O)oc2ccc(C)cc21`, the IC50 was > 20 µM (inactive).

Regarding `Cc1ccc2cc(CN(CCN3CCCC3)C(=O)Nc3ccccc3)c(=O)[nH]c2c1C`, the IC50 is > 20 µM (inactive).

`CCC(=O)O[C@@H]1CC(=O)O[C@H](C)CC=CC=C[C@@H](O)[C@H](C)C[C@H](CC=O)[C@H](O[C@H]2O[C@H](C)[C@@H](O[C@H]3C[C@@](C)(O)[C@@H](OC(=O)CC)[C@H](C)O3)[C@H](N(C)C)[C@H]2O)[C@H]1OC`: the IC50 is 0.55 µM.

In the case of `COc1cccc(Oc2cnc(N)nc2-c2ccc(OC)cc2O)c1`, the IC50 was > 20 µM (inactive).

`CC(C)CC(NC(=O)c1ccco1)C(=O)Nc1ccc2c(c1)OCCO2` (configuration not stated): the IC50 was > 20 µM (inactive).

As for `Cc1ccc(-c2nc(CS(=O)CC(=O)NCCC(C)C)c(C)o2)cc1` (configuration not stated), the IC50 was > 20 µM (inactive).

On to `Cc1ccsc1-c1nc(CSCC(=O)N2CCN(c3ccccc3)CC2)c(C)o1`, for which the IC50 was 12.4 µM (inactive).

Consider `Cc1cccc(Nc2ccccc2C(=O)O)c1C`, for which the IC50 was 1.02 µM.

In the case of `CCc1ccc(S(=O)(=O)c2n[nH]n3c2nc(=O)c2ccccc23)cc1`, the IC50 was 1.46 µM.

With `Clc1ccc(OCc2nnc3n2N=C(c2ccc4c(c2)OCCO4)CS3)c(Cl)c1`, the IC50 was > 20 µM (inactive).

For `CC1CCCN(C(C(=O)Nc2ccc3c(c2)OCCO3)c2ccccc2)C1` (configuration not stated), the IC50 was > 20 µM (inactive).

As for `CC1CN(c2nc3ccccc3nc2C(C#N)C(=O)OC2CCCCC2)CC(C)O1` (configuration not stated), the IC50 was > 20 µM (inactive).

Regarding `COc1ccc(N(CC(=O)Nc2nc3ccc(C)cc3s2)S(=O)(=O)c2c(C)nn(C)c2C)cc1`, the IC50 is > 20 µM (inactive).

Consider `CCCCc1oc2ccccc2c1C(=O)c1cc(I)c(OCCN(CC)CC)c(I)c1`, for which the IC50 is > 20 µM (inactive).

Take `COc1ccc(-c2cnc(SCC(=O)Nc3ccc4c(c3)OCO4)n2Cc2ccco2)cc1`: the IC50 is 16.3 µM (inactive).

In the case of `COc1ccc(OC)c2[nH]c(=O)c(CCNC(=O)C(C)C)cc12`, the IC50 was > 20 µM (inactive).

With `CCc1oc2ccccc2c1C(=O)c1ccc(O)cc1`, the IC50 was 3.28 µM.

What is called IC50 is the concentration that inhibits the measured activity by half.
